Where a name gives a salt, the structure may show the parent alone.
Assays:
Jurkat, U937, Meso-2 = conditions: Tomic-Vatic et al, 2005, cited from earlier work; for IC50: Jurkat, U937, Meso-2; for pro-apoptotic activity: ester bond replaced by amide bond
MCF7 = conditions: cited from earlier work
[1] = target: T1, α-tocopherol transfer protein (α-TTP) (Rattus norvegicus, UniProt P41034); conditions: α-tocopherol 100%; Hosomi et al, 1997; cited from earlier work
T1 sequence (P41034 1-278): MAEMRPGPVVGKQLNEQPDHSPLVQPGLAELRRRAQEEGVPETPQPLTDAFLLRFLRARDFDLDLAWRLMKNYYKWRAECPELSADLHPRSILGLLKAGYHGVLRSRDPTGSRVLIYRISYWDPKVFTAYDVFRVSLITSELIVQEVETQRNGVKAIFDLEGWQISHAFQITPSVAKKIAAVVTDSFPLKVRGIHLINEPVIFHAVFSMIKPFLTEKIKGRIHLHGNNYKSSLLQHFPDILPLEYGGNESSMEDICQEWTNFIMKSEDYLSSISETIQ

[2] = system: Jurkat, HBT11, MCF7, MCF7-C3; conditions: Birringer et al, cited from earlier work; for pro-apoptotic activity: compared with α-TOS and isomers; for IC50: Jurkat, HBT11, MCF7, MCF7-C3, 2003
B16(F10) = conditions: He et al, 1997, cited from earlier work; for IC50: B16(F10)
mesothelioma = assay: Clinical study, patient with mesothelioma; format: in vivo; conditions: same patient
Method: α-TOS was used to treat mesothelioma in a human cancer patient. […] The blood plasma levels were monitored and levels of α-TOS in the plasma attained 50 μM over prolonged periods during continual application. This is more than sufficient to kill the cancer cells based on in vitro analysis.
The patient was originally receiving high dose opiate medications, neuropathic pain medications, home oxygen, and was predicted to have a life expectancy of 6-8 weeks. After treatment with α-TOS, the patient no longer required analgesia or oxygen.
In December 2005, the patient started receiving transdermal delivery of α-TOS, prepared in a base cream and solubilised with dimethyl sulfoxide (DMSO).
In April 2007, therapy with α-TOS was commenced using a modified formulation mixed in a lipodermal cream (see below). […] In addition, a palpable lesion was visible growing out between the ribs and the right anterior chest wall. The patient was in very poor condition with a low ECOG- no CT scan could be performed at the time of commencing the α-TOS treatment because the patient was too moribund.
α-TOS formulation: 500 gms of Lipoderm cream plus 60 gms α-TOS compounded by the hospital pharmacy. About 30 gms of compounded mix was administered every few days, and the upper body was wrapped in plastic film (“saran wrap”) to improve absorption.

[3] = target: T2, complex II/SDH-dependent activity in NeuTL cells (Mus musculus, UniProt Q8K2B3+Q9CQA3+Q9CXV1+Q9CZB0); assay: MTT reduction assay of complex II/SDH activity in whole cells; format: cell-based, murine; conditions: absence of added succinate; 4 h
T2 construct: For specifically measuring complex II activity in whole cells; endogenous in cells; host or cells: NeuTL murine breast cancer cells
T2 sequence (Q8K2B3 43-664): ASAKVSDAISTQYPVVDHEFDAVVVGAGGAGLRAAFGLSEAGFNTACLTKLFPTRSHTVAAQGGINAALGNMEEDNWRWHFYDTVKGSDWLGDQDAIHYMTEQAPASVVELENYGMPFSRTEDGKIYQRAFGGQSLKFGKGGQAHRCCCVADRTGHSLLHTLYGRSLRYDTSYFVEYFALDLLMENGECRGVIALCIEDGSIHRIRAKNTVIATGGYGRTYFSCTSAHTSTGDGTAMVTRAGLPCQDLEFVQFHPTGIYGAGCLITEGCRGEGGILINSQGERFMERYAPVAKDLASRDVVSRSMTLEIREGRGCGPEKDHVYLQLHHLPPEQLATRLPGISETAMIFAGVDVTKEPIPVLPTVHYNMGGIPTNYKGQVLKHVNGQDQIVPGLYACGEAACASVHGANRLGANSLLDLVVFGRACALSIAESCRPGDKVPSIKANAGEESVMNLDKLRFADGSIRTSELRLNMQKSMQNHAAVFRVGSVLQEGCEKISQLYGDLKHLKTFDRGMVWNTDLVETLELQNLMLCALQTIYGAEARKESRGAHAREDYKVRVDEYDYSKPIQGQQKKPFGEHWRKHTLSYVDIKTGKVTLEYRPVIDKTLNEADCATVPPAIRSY
T2 sequence (Q9CQA3 31-282): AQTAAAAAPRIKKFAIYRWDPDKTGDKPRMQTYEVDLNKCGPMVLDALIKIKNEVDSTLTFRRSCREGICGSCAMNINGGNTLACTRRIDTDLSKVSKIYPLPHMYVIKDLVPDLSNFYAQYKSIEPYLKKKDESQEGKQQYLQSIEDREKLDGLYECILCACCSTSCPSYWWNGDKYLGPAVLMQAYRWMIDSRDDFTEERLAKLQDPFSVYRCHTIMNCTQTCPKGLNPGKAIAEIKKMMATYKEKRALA
T2 sequence (Q9CZB0 30-169): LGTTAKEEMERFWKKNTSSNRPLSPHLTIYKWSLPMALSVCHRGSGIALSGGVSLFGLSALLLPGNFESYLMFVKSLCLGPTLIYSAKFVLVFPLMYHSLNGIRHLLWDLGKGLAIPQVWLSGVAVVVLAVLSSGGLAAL
T2 sequence (Q9CXV1 57-159): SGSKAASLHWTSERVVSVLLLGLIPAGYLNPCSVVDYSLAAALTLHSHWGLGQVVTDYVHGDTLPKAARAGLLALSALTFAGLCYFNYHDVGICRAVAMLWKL
Method: MTT assay. MTT solutions were prepared immediately before use by dissolving 2.5 mg/ml 3-(4,5-dimethyl[…] (MTT) (Sigma) in PBS alone or phenol red-free RPMI medium containing 20 mM succinic acid, pH 7.4. Stock solutions of 3-nitropropionic acid (3NPA) in ethanol, thenoyltrifluoroacetone (TTFA) in DMSO, 3-BP in PBS, α-TOS in DMSO, and MitoQ (Alleva et al, 2003, James et al, 2005) in ethanol were prepared. The drugs were tested on NeuTL cells cultured in exponential growth phase in 96-well microtitre plates using 4-8 replicate wells per dilution assayed. To assess the ability of MitoQ to restore MTT reduction, cells were pre-incubated for 60 min with 2 or 5 μM MitoQ. Final concentrations of ethanol or DMSO in cultures were ≦0.1%. Treated and control cells were allowed to reduce MTT to blue formazan crystals for 2 or 4 h at 37° C. and 5% CO2. After incubation, culture supernatants were removed except for 30 μl, before the formazan crystals were solubilized by addition of 150 μl DMSO, and absorbance values were measured at 570 nm using a Fluorostar Optima plate reader.
To this end, the present inventors investigated whether α-TOS interferes with UbQ binding in complex II. For specifically measuring complex II activity in whole cells, a short-term (1-2 h) assay was used based on the reduction of the tetrazolium salt, MTT (Maehara et al, 1988). […] For this, oxidative respiration of murine NeuTL breast cancer cells was sustained on high levels of succinate (20 mM), thereby promoting the SDH activity of complex II (Maehara et al, 1988). The cells were then assayed within 1-2 h for their ability to enzymatically reduce MTT, which under conditions of high succinate becomes a specific indicator of complex II/SDH-dependent activity (Maehara et al, 1988, Berridge and Tan, 1993).

Cc1cc(NC(=O)C=CC(=O)O)cc2c1OC(C)(CCCC(C)CCCC(C)CCCC(C)C)CC2 (stereo not shown) [Compound 38]
IC50 (Jurkat, U937, Meso-2): 9 µM | pro-apoptotic activity (Jurkat, U937, Meso-2): further enhancement of pro-apoptotic activity

CCCCC(=O)OCC1(C)CCc2c(C)c(OC(=O)C(N)CCCCN)c(C)c(C)c2O1 (stereo not shown) [Compound 49]
IC50 (MCF7): 15 µM

Cc1c(O)cc2c(c1C)O[C@](C)(CCC[C@H](C)CCC[C@H](C)CCCC(C)C)CC2 [γ-tocopherol]
relative affinities for α-TTP [1]: 9%

Cc1c(C)c2c(c(C)c1NC(=O)C=CC(=O)O)CCC(C)(CCCC(C)CCCC(C)CCCC(C)C)O2 (stereo not shown) [Compound 13]
IC50 (Jurkat, U937, Meso-2): 2 µM | pro-apoptotic activity (Jurkat, U937, Meso-2): further enhancement of pro-apoptotic activity

Cc1cc(O)c(C)c2c1O[C@](C)(CCC[C@H](C)CCC[C@H](C)CCCC(C)C)CC2 [β-tocopherol]
relative affinities for α-TTP [1]: 38%

Cc1c(C)c2c(c(C)c1OC(=O)CCCC(=O)O)CCC(C)(CCCC(C)CCCC(C)CCCC(C)C)O2 (stereo not shown) [Compound 5]
pro-apoptotic activity [2]: decreased activity

Cc1c(C)c2c(c(C)c1OC(=O)C=CC(=O)O)CCC(C)(CCCC(C)CCCC(C)CCCC(C)C)O2 (stereo not drawn) [Compound 3, α-tocopheryl maleate]
pro-apoptotic activity [2]: Even greater pro-apoptotic activity | IC50 [2]: 22 µM

CC(C)=CCC/C(C)=C/CC/C(C)=C/CC[C@]1(C)CCc2cc(O)cc(C)c2O1 [Compound 59, δ-tocotrienol]
IC50 (B16(F10)): 10 µM | potency in the murine B16-F10 melanoma cell model (B16(F10)): most potent agent

Cc1c(C)c2c(c(C)c1OC(=O)CC(C)CC(=O)O)CCC(C)(CCCC(C)CCCC(C)CCCC(C)C)O2 (stereo not shown) [Compound 6]
pro-apoptotic activity [2]: decreased activity

Cc1c(C)c2c(c(C)c1NC(=O)CCC(=O)O)CCC(C)(CCCC(C)CCCC(C)CCCC(C)C)O2 (stereo not shown) [Compound 12]
IC50 (Jurkat, U937, Meso-2): 13 µM | pro-apoptotic activity (Jurkat, U937, Meso-2): further enhancement of pro-apoptotic activity

Nc1ccn([C@@H]2O[C@H](CO)[C@@H](O)C2(F)F)c(=O)n1 [Gemcitabine, reference compound]
toxicity of other therapies (medical history) (mesothelioma): unacceptable levels of toxicity

Cc1c(C)c2c(c(C)c1OC(=O)CC(C)(C)CC(=O)O)CCC(C)(CCCC(C)CCCC(C)CCCC(C)C)O2 (stereo not shown) [Compound 7]
pro-apoptotic activity [2]: decreased activity

Cc1c(C)c2c(c(C)c1CC(=O)O)CCC(C)(CCCC(C)CCCC(C)CCCC(C)C)O2 (stereo not shown) [Compound 22]
EC50 [μg/ml] (MCF7; Shiau et al, 2006, footnote g): 15-20^g μg/ml

Cc1cc(OC(=O)C=CC(=O)O)cc2c1OC(C)(CCCC(C)CCCC(C)CCCC(C)C)CC2 (stereo not shown) [Compound 36]
IC50 (Jurkat, U937, Meso-2): 49 µM

Cc1c(C)c2c(c(C)c1OC(=O)C(N)CCCCN)CCC(C)(CO)O2 (stereo not shown) [Compound 47]
IC50 (MCF7): 194 µM

Cc1c(C)c2c(c(C)c1O)CC[C@@](C)(CCC[C@H](C)CCC[C@H](C)CCCC(C)C)O2 [α-tocopherol]
relative affinities for α-TTP [1]: 100%

O=C(O)CC[N+](=O)[O-] [Compound 3NPA, 3-nitropropionic acid]
complex II-mediated MTT reduction [3]: potent inhibitors of the complex II-mediated MTT reduction

COC(=O)CCC(=O)Oc1c(C)c(C)c2c(c1C)CCC(C)(CCCC(C)CCCC(C)CCCC(C)C)O2 (stereo not shown) [Compound 9]
pro-apoptotic activity [2]: without pro-apoptotic activity

Cc1c(C)c2c(c(C)c1OC(=O)C(N)CCCCN)CCC(C)(CCCC(C)CCCC(C)CCCC(C)C)O2 (stereo not shown) [Compound 16]
IC50 (MCF7): 12 µM

Oc1ccc(C2=Cc3ccc(O)cc3OC2)cc1 [phenoxodiol, reference compound]
toxicity of other therapies (medical history) (mesothelioma): ongoing severe neuropathy

CC(C)=CCC/C(C)=C/CC/C(C)=C/CCC1(C)CCc2cc(O)ccc2O1 (stereo not shown) [Compound 60, desmethyl tocotrienol]
IC50 (B16(F10)): 0.9 µM

Cc1cc(OC(=O)CCC(=O)O)cc2c1OC(C)(CCCC(C)CCCC(C)CCCC(C)C)CC2 (stereo not shown) [Compound 35]
pro-apoptotic activity [2]: least effective | IC50 [2]: 66 µM

COC(=O)CCC(=O)Nc1c(C)c(C)c2c(c1C)CCC(C)(CCCC(C)CCCC(C)CCCC(C)C)O2 (stereo not shown) [Compound 14]
IC50 (Jurkat, U937, Meso-2): > 100 µM

CCC1=C[C@@H]2CN(C1)Cc1c([nH]c3ccccc13)[C@@](C(=O)OC)(c1cc3c(cc1OC)N(C)[C@H]1[C@@](O)(C(=O)OC)[C@H](OC(C)=O)[C@]4(CC)C=CCN5CC[C@]31[C@@H]54)C2 [Vinorelbine, reference compound]
toxicity of other therapies (medical history) (mesothelioma): severe exacerbation of peripheral neuropathy

Cc1cc(NC(=O)CCC(=O)O)cc2c1OC(C)(CCCC(C)CCCC(C)CCCC(C)C)CC2 (stereo not shown) [Compound 37]
IC50 (Jurkat, U937, Meso-2): 20 µM | pro-apoptotic activity (Jurkat, U937, Meso-2): further enhancement of pro-apoptotic activity

Cc1cc(O)cc2c1O[C@](C)(CCC[C@H](C)CCC[C@H](C)CCCC(C)C)CC2 [δ-tocopherol]
relative affinities for α-TTP [1]: 2%

CCCCCOCC1(C)CCc2c(C)c(OC(=O)C(N)CCCCN)c(C)c(C)c2O1 (stereo not shown) [Compound 48]
IC50 (MCF7): 22 µM

Reference: US8410056B2, “Pro-oxidant anti-cancer compounds” (priority 2006, dated 2013)
